The text below walks through data of patent US20030125349A1, “Medicament containing cilansetron for the treatment of non-obstipative male irritable bowel syndrome patients” (Solvay Pharmaceuticals GmbH, priority 2000, published 2003).

Assay [1] has as its system non-obstipative IBS patients. Put plainly: 12-week placebo-controlled clinical double-blind study, adequate alleviation of IBS symptoms. The class given is in vivo, human. The conditions noted are these: for Final success rate: all patients (471; both sexes); for Success rate (responder rate, adequate alleviation of IBS symptoms): provisional result (454 patients). From the text: The effect of cilansetron on non-obstipative IBS patients of both sexes was investigated in a 12-week placebo-controlled clinical double-blind study with randomized selection and parallel test groups. […] Likewise, those patients were included in the study who responded “No” to the question about pain/feeling of unwellness in the lower abdomen only in ≦50% of the cases or who judged their pain/feeling of unwellness in the lower abdomen as “restrictive” for <2 times over a two-week observation period. Cilansetron was used in doses of 1, 2, 8 and 16 mg. The patients were checked weekly for “adequate alleviation” (=primary effectiveness parameter) of their IBS symptoms (stomach pains such as pains in the abdomen, abnormal bowel activity). Stomach pains such as pains in the abdomen, nature of the stools and stool frequency were rated daily by the patients (=secondary effectiveness parameter). In a provisional result of the double-blind study, the data of a total of 454 patients (297 female patients and 157 male patients) were evaluated and plotted in the table below. Corresponding to the criteria on which the clinical double-blind study was based, in both patient subgroups of male IBS patients and female IBS patients the success rates relating to the “adequate alleviation” of the IBS symptoms as set forth in the table below were noted: The “primary effectiveness parameter” corresponds to the success rate (=“responder rate”) to the question, which was put weekly to the patients, as to whether they had experienced “adequate alleviation” of their IBS symptoms (pain/feeling of unwellness in the lower abdomen, abnormal bowel activity) during the course of the previous week. A “responder” is regarded as a patient who was treated for at least four weeks and who responded “Yes” to the question posed of whether “adequate alleviation” of his/her IBS symptoms had occurred for at least half of his/her treatment period. At the end of the double-blind study, the data of a total of 471 patients (308 female patients and 163 male patients) were evaluated. The final success rates were 40% for the placebo group, 62% for the dose 1 mg cilansetron (TID), 53% for the dose 2 mg cilansetron (TID), 55% for the dose 8 mg cilansetron (TID) and 63% for the dose 16 mg cilansetron (TID).

Assay [2] relates to non-obstipative IBS patients. The conditions noted are these: clinical tests, WO 99/17755, cited from earlier work.

In the case of `Cc1nccn1C[C@H]1CCc2c(c3cccc4c3n2CCC4)C1=O` [Cilansetron, (R)-(−)-4,5,6,8,9,10-hexahydro-10-[(2-methyl-1H-imidazol-1-yl)methyl]-11H-pyrido-[3,2,1-jk]-carbazol-11-one], the Final success rate in assay [1] (1 mg TID, end of study) is given as 62%; in assay [1] (2 mg TID, end of study) it was 53%; in assay [1] (8 mg TID, end of study), 55%; in assay [1] (16 mg TID, end of study) it was 63%. Moreover, in assay [1] (doses 1, 2, 8 and 16 mg), the “Response to treatment of non-obstipative IBS patients of both sexes” value was “respond to the treatment with cilansetron in all the dosages investigated”. The “Final success rates, male compared with female patient groups” value in assay [1] (end of study, greatest differences at 1 mg TID) was “very similar for the male and female patient groups”. Moreover, the “Success rate (responder rate, adequate alleviation of IBS symptoms)” value in assay [1] (female patients, 1 mg TID) was determined as 69.6%; in assay [1] (female patients, 2 mg TID) it was 60.3%; in assay [1] (female patients, 8 mg TID) it was 56.9%; in assay [1] (female patients, 16 mg TID) it was 61.4%; in assay [1] (male patients, 1 mg TID), 51.3%; in assay [1] (male patients, 2 mg TID), 63.0%. Moreover, the “Success rate (responder rate, adequate alleviation of IBS symptoms)” value in assay [1] (male patients, 8 mg TID) is given as 56.3%; in assay [1] (male patients, 16 mg TID), 58.6%.

For `Cc1[nH]cnc1CN1CCc2c(c3ccccc3n2C)C1=O` [alosetron], in assay [2], the “Effectiveness on female IBS patients compared with male IBS patients” value is given as “significantly better effectiveness on female IBS patients”. Moreover, the “Improvement in condition compared with the placebo group” value in assay [2] (male test subjects) was “no significant improvement in condition compared with the placebo group”.
